“Also recorded” adds a separate entry of the source.
Key:
lung DCs = assay: Activation of murine lung DCs: phagocytosis of Aspergillus conidia, costimulatory antigen expression, cytokine production; type: cell-based
Experimental: For mature PDCs, immature DCs were cultured with the trimeric human CD40 ligand as above and 10 ng/ml IL-3. […] The expression of HLA Class II, CD80 and CD86 was high in both immature and mature DCs. Murine lung CD 11c^+ DCs (between 5 to 7% positive for CD8alpha and between 30 to 35% positive for Gr-1) were isolated by magnetic cell sorting. For phagocytosis, DCs were pre-exposed to 100 ng/ml TA1 for 60 minutes and subsequently incubated at 37° C. with Aspergillus conidia for an additional 60 minutes. The percentage of internalization was calculated and photographs were taken. In assessing functional maturation and cytokine determination, purified DCs were resuspended in Iscove's medium (with no serum but with polymixin B, to avoid non-specific activation by serum components and endotoxin) and pulsed with 100 ng/ml TA1 for 24 hours either alone or together with TLR ligands or unopsonized Aspergillus conidia. Cell surface phenotype was assessed by reacting samples with FITC- or PE-conjugated rat anti-mouse antibodies. Unrelated hisotype matched antibodies were used as control. The levels of TNF-alpha, IL-10, IL-12 p70, IFN-alpha and IL-8 in culture supernatants were determined by Kit ELISAs. The detection limits (pg/ml) of the assays were <3 (human) and <32 (murine) for TNF-alpha, <12 (murine) and <5 (human) for IL-10, <16 (murine) and <3 (human) for IL-12 p70 and <25 (human) IL-8. For human IFN-alpha <3 ng/ml. For enumeration of cytokine-producing cells, an ELISPOT assay was used on purified CD4^+ T cells and DCs from lungs.

A. fumigatus [1] = assay: Therapeutic efficacy of TA1 in T cell-, IFN-gamma- or IL-4-deficient mice with aspergillosis; type: in vivo
Description: Female, 8- to 10-weeks old, BALB/c and C57BL6 mice were from Charles River. NOD/SCID were from The Jackson. Breeding pairs of homozygous TLR2-, TLR9- and MyD88-deficient mice, raised on C57BL6 background, and of homozygous IFN-gamma- and IL-4-deficient mice, raised on BALB/c background, were bred under specific-pathogen free conditions.
(§1) For infection with A. fumigatus, mice were intranasally injected for 3 consecutive days with a suspension of 2×10^7 conidia/20 microliter saline. For the quantification of fungal growth in the lungs, the chitin assay was used. The chitin content was expressed as micrograms of glucosamine per organ. The glucosamine content of lungs from uninfected mice was used as a negative control ranging between 0.80 and 2.25 microgram glucosamine/organ. For histological analysis, lungs were excised and immediately fixed in formalin. Sections (3 to 4 micron) of paraffin-embedded tissues were stained with the periodic acid-Schiff procedure. Thymosin alpha 1 (TA1) and the scrambled polypeptide are as purified sterile lyophilized acetylated polypeptides with endotoxin levels less than 0.03 pg/ml, by a standard limulus lysate assay. The sequences were as follows: Ac-[…]O (Thymosin alpha 1, SEQ ID NO.: 1) and Ac-[…]OH ([…]). Their lyophilized powders were reconstituted in sterile water.
The treatments were as follows; in BMT-mice, TA1, at different doses administered intraperitoneally, sthymosin alpha 1, 400 microgram/kg administered intraperitoneally or human recombinant G-CSF 250 microgram/kg administered intravenously, were given daily beginning the day of the BM infusion, in concomitance with the infection and continuing for an additional 3 days. Amphotericin B was given daily for 3 days in concomitance with the infection, at a dose of 4000 microgram/kg, administered intraperitoneally. This dose would cure IA in cyclophosphamide-treated mice. Cyclophosphamide, 150 mg/kg administered intraperitoneally, was given a day before the infection. […]

murine DCs = assay: RT-PCR of TLR expression on DCs; type: cell-based
Experimental: Synthesis and PCR of cDNA were performed with forward and reverse PCR primers and the cycles used for murine and human TLRs and HPRT. The synthesized PCR products were separated by electrophoresis on 2% agarose gel and visualized by ethidium bromide staining.

A. fumigatus [2] = assay: BMT mice with invasive aspergillosis: survival, fungal growth in lungs (chitin assay), lung histology; type: in vivo
Description: as §1
The treatments were as follows; in BMT-mice, TA1, at different doses administered intraperitoneally, sthymosin alpha 1, 400 microgram/kg administered intraperitoneally or human recombinant G-CSF 250 microgram/kg administered intravenously, were given daily beginning the day of the BM infusion, in concomitance with the infection and continuing for an additional 3 days. Amphotericin B was given daily for 3 days in concomitance with the infection, at a dose of 4000 microgram/kg, administered intraperitoneally. This dose would cure IA in cyclophosphamide-treated mice. Cyclophosphamide, 150 mg/kg administered intraperitoneally, was given a day before the infection. In cyclophosphamide-treated mice, 400 microgram/kg TA1 was given intraperitoneally for 5 consecutive days beginning the day of the infection.
C57BL6 mice were exposed to a lethal dose of 9 Gy and infused with T cell-depleted donor cells from BALB/c mice.

[3] = combined exposure to Aspergillus conidia and TA1
[4] = combined exposure to conidia and peptide
[5] = mice treated with both agents (TA1 and amphotericin B)

## Ac-Ser-Asp-Ala-Ala-Val-Asp-Thr-Ser-Ser-Glu-Ile-Thr-Thr-Lys-Asp-Leu-Lys-Glu-Lys-Lys-Glu-Val-Glu-Glu-Ala-Glu-Asn-O (Ac-SDAAVDTSSEITTKDLKEKKEVEEAEN-OH) [TA1, naturally occurring thymic peptide]
Lung DCs; 100 ng/ml
  activation of lung DCs for phagocytosis of unopsonized conidia, costimulatory antigen expression and cytokine production: activates
Lung DCs; [3]
  expression of MHC Class II antigens, CD86 and CD40 molecules: remarkably increased
  frequency of IL-12 p70-producing DCs: remarkably increased
Lung DCs; thymosin alone
  frequency of IL-12 p70-producing DCs: also increased
A. fumigatus [1]; IL-4-deficient mice (increased Th1 cells)
  therapeutic efficacy: improved therapeutic efficacy
A. fumigatus [1]; mice devoid of IFN-gamma-producing Th1 cells
  therapeutic efficacy: not as great
A. fumigatus [1]; mice devoid of T cells
  therapeutic efficacy: not as great
Murine DCs; combined exposure to conidia and TA1
  expression of TLR5: inhibited
Murine DCs; [4]
  expression of TLR2: still activated
  expression of TLR9: still activated
Murine DCs; peptide alone
  expression of TLR2: strongly activates
  expression of TLR5: strongly activates
  expression of TLR9: strongly activates
A. fumigatus [2]; 200 and 400 microgram/kg TA1, amphotericin B 4000 microgram/kg
  protection compared with amphotericin B: superior to that of amphotericin B
A. fumigatus [2]; 200 microgram/kg TA1
  survival (full protection): > 60 days
A. fumigatus [2]; 400 microgram/kg TA1
  survival (full protection): > 60 days
A. fumigatus [2]; BMT mice with IA
  fungal growth in the lungs: dose-responsive reduction; also recorded: reduced fungal growth
  survival: increased survival
A. fumigatus [2]; BMT mice with IA, different doses
  effect on protection, dose relation: dose-dependent
A. fumigatus [2]; intraperitoneally, daily
  cure of BMT mice with IA: complete cure; also recorded: able to cure
A. fumigatus [2]; lung sections, periodic acid-Schiff
  lung pathology: decreases lung pathology
A. fumigatus [2]; mice treated with both agents
  effect on therapeutic efficacy of amphotericin B: increases the therapeutic efficacy of amphotericin B
A. fumigatus [2]; [5]
  fungal burden: decreased fungal burden
  survival: increased survival

From patent US8389680B2, “Treatment of Aspergillus infections with alpha thymosin peptides” (SciClone Pharmaceuticals, Inc., priority 2003, dated 2013)
